Results reported in patent US12403137B2, “Compounds and methods of use” (Tango Therapeutics, Inc., priority 2019, dated 2025).

Key:
PRMT5 [1] = target: T1, PRMT5 (Homo sapiens, UniProt O14744); assay: PRMT5 inhibition assay with no cofactor; format: biochemical; conditions: against PRMT5 with no cofactor; read-out: No Co-factor IC50
T1 construct: purchased Viva (custom protein)

[2] = test system: HAP1 MTAP-deleted cell line; assay: SDMA in-cell western assay, HAP1 MTAP-deleted; format: cell-based; conditions: for IC50: Homo sapiens, HAP1 MTAP-deleted (MTAP-null) cell line; for MTAP Intact/Deleted Ratio: IC50 ratio HAP1 MTAP-intact / HAP1 MTAP-deleted, >=3 fold considered MTAP-selective
In short: (§1)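 IC50 values come from an SDMA in-cell western run in isogenic HAP1 cells, either MTAP-null or expressing endogenous MTAP. The intact-to-deleted IC50 ratio is used to score MTAP selectivity.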

[3] = test system: HAP1 MTAP-intact cell line; assay: SDMA in-cell western assay, HAP1 MTAP-intact; format: cell-based; conditions: Homo sapiens
In short: as §1

PRMT5 [4] = target: T1, PRMT5; assay: PRMT5 inhibition assay with MTA as cofactor; format: biochemical; conditions: for IC50: against PRMT5 with MTA as cofactor; for SAM/MTA Ratio: ratio of Ki in the presence of SAM to Ki in the presence of MTA, Ki=IC50/1.5 (SAM), Ki=IC50/13.5 (MTA)
Excerpt: (§2) The Ki values can be calculated from the IC50 values as described in the Examples section. As detailed in the Examples section, for the assay performed in the presence of SAM, IC50=Ki×1.5 (Ki=IC50/1.5). For the assay performed in the presence of MTA, IC50=Ki×13.5 (Ki=IC50/13.5). Column 6 indicates the ratio between the Ki of compounds in the presence of SAM and the Ki of compounds in the presence of MTA

PRMT5 [5] = target: T1, PRMT5; assay: PRMT5 inhibition assay with SAM as cofactor; format: biochemical; conditions: against PRMT5 in the presence of SAM as cofactor
Excerpt: as §2

T1 sequence (O14744 whole entry): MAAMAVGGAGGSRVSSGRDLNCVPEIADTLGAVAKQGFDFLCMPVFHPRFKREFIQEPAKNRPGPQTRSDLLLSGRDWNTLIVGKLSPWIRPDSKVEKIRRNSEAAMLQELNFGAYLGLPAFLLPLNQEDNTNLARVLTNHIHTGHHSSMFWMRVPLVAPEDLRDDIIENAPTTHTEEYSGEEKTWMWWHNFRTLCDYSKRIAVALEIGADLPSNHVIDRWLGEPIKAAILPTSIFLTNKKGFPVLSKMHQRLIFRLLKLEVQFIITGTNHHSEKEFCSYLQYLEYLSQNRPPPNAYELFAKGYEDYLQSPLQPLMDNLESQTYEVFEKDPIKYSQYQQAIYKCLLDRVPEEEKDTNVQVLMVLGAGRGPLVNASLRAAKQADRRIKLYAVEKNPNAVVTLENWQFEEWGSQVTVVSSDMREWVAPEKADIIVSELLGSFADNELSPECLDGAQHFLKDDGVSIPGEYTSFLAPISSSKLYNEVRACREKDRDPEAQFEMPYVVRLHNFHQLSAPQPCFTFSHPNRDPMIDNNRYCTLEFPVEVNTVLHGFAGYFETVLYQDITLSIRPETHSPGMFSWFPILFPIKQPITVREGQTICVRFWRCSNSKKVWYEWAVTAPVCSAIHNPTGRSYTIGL
T1 sequence (Q9BQA1 whole entry partner): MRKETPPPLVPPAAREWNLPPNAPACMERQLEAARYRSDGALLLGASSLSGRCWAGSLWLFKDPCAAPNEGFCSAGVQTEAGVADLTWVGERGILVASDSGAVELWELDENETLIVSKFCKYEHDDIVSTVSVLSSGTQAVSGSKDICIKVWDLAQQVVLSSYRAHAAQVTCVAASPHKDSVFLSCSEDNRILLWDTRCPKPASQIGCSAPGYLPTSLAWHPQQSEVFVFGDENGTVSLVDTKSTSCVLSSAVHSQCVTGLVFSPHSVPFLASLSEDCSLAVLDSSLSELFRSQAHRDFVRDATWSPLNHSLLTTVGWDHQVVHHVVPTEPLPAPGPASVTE

SMILES | IC50 (PRMT5 [1]) | IC50 [2] | MTAP Intact/Deleted Ratio [2] | IC50 [3] | IC50 (PRMT5 [4]) | SAM/MTA Ratio (PRMT5 [4]) | IC50 (PRMT5 [5])
Cc1ncoc1COc1ccc2c(c1)CN[C@H]([C@H](O)CNC(=O)c1ccc(C(=O)N3CCOCC3)cc1)C2 [Compound 3, N—((R)-2-hydroxy-2-((S)-7-((4-methyloxazol-5-yl)methoxy)-1,2,3,4-tetrahydroisoquinolin-3-yl)ethyl)-4-(morpholine-4-carbonyl)benzamide] | 0.5 to 5 µM | 1 to 10 µM | C* (an IC50 ratio of less than 3 fold between the IC50 in the HAP1 MTAP-intact cell line and the HAP1 MTAP-deleted cell line) | ≥ 10 µM | 0.05 to 0.5 µM | A (a Ki ratio greater than or equal to 10 fold between the Ki in the presence of SAM and the Ki in the presence of MTA) | 0.05 to 0.5 µM
CCOc1cc(C(=O)N2[C@@H]3CCC[C@H]2COC3)ccc1C(=O)NC[C@@H](O)[C@@H]1Cc2ccc(OCc3ccnn3C)cc2CN1 [Compound 6, 4-((1R,5S)-3-oxa-9-azabicyclo[3.3.1]nonane-9-carbonyl)-2-ethoxy-N—((R)-2-hydroxy-2-((S)-7-((1-methyl-1H-pyrazol-5-yl)methoxy)-1,2,3,4-tetrahydroisoquinolin-3-yl)ethyl)benzamide] | 0.5 to 5 µM | < 1 µM | C* (an IC50 ratio of less than 3 fold between the IC50 in the HAP1 MTAP-intact cell line and the HAP1 MTAP-deleted cell line) | < 1 µM | 0.05 to 0.5 µM | A (a Ki ratio greater than or equal to 10 fold between the Ki in the presence of SAM and the Ki in the presence of MTA) | 0.05 to 0.5 µM
CC(=O)N1CCC(Nc2cc(C(=O)NC[C@@H](O)[C@@H]3Cc4ccc(OCc5ocnc5C)cc4CN3)ncn2)CC1 [Compound 41, 6-[(1-acetyl-4-piperidyl)amino]-N-[(2R)-2-hydroxy-2-[(3S)-7-[(4-methyloxazol-5-yl)methoxy]-1,2,3,4-tetrahydroisoquinolin-3-yl]ethyl]pyrimidine-4-carboxamide] | 0.5 to 5 µM | 1 to 10 µM | B* (an IC50 ratio greater than or equal to 3 fold but lower than 10 fold between the IC50 in the HAP1 MTAP-intact cell line and the HAP1 MTAP-deleted cell line) | ≥ 10 µM | < 0.05 µM | A (a Ki ratio greater than or equal to 10 fold between the Ki in the presence of SAM and the Ki in the presence of MTA) | 0.05 to 0.5 µM
Cn1nccc1COc1ccc2c(c1)CN[C@H]([C@H](O)CNC(=O)c1ccc(C(=O)N3[C@@H]4CCC[C@H]3COC4)cc1)C2 [Compound 9, 4-((1R,5S)-3-oxa-9-azabicyclo[3.3.1]nonane-9-carbonyl)-N—((R)-2-hydroxy-2-((S)-7-((1-methyl-1H-pyrazol-5-yl)methoxy)-1,2,3,4-tetrahydroisoquinolin-3-yl)ethyl)benzamide] | 0.5 to 5 µM | 1 to 10 µM | B* (an IC50 ratio greater than or equal to 3 fold but lower than 10 fold between the IC50 in the HAP1 MTAP-intact cell line and the HAP1 MTAP-deleted cell line) | ≥ 10 µM | 0.05 to 0.5 µM | A (a Ki ratio greater than or equal to 10 fold between the Ki in the presence of SAM and the Ki in the presence of MTA) | 0.05 to 0.5 µM
CC(=O)N1CCC(Nc2cc(C(=O)NC[C@@H](O)[C@@H]3Cc4ccc(OCc5ocnc5C)cc4CN3)ccn2)CC1 [Compound 44, 2-[(1-acetyl-4-piperidyl)amino]-N-[(2R)-2-hydroxy-2-[(3S)-7-[(4-methyloxazol-5-yl)methoxy]-1,2,3,4-tetrahydroisoquinolin-3-yl]ethyl]pyridine-4-carboxamide] | 0.05 to 0.5 µM | 1 to 10 µM | B* (an IC50 ratio greater than or equal to 3 fold but lower than 10 fold between the IC50 in the HAP1 MTAP-intact cell line and the HAP1 MTAP-deleted cell line) | ≥ 10 µM | < 0.05 µM | A (a Ki ratio greater than or equal to 10 fold between the Ki in the presence of SAM and the Ki in the presence of MTA) | 0.05 to 0.5 µM
CCOc1nc(N2CCN(C(=O)OC)CC2)ccc1C(=O)NC[C@@H](O)[C@@H]1Cc2ccc(OCc3cnco3)cc2CN1 [Compound 16, methyl 4-(6-ethoxy-5-(((R)-2-hydroxy-2-((S)-7-(oxazol-5-ylmethoxy)-1,2,3,4-tetrahydroisoquinolin-3-yl)ethyl)carbamoyl)pyridin-2-yl)piperazine-1-carboxylate] | 0.05 to 0.5 µM | < 1 µM | B* (an IC50 ratio greater than or equal to 3 fold but lower than 10 fold between the IC50 in the HAP1 MTAP-intact cell line and the HAP1 MTAP-deleted cell line) | 1 to 10 µM | < 0.05 µM | A (a Ki ratio greater than or equal to 10 fold between the Ki in the presence of SAM and the Ki in the presence of MTA) | 0.05 to 0.5 µM
Cc1ncoc1COc1ccc2c(c1)CN[C@H]([C@H](O)CNC(=O)c1cc(NC3CCC3)nc(N3CCCCC3)c1)C2 [Compound 31, 2-(cyclobutylamino)-N—((R)-2-hydroxy-2-((S)-7-((4-methyloxazol-5-yl)methoxy)-1,2,3,4-tetrahydroisoquinolin-3-yl)ethyl)-6-(piperidin-1-yl)isonicotinamide] | 0.05 to 0.5 µM | < 1 µM | C* (an IC50 ratio of less than 3 fold between the IC50 in the HAP1 MTAP-intact cell line and the HAP1 MTAP-deleted cell line) | < 1 µM | 0.05 to 0.5 µM | A (a Ki ratio greater than or equal to 10 fold between the Ki in the presence of SAM and the Ki in the presence of MTA) | 0.05 to 0.5 µM
Cc1ncoc1COc1ccc2c(c1)CN[C@H]([C@H](O)CNC(=O)c1cc(NC3CCC3)nc(N3CCCCC3)n1)C2 [Compound 49, 6-(cyclobutylamino)-N-[(2R)-2-hydroxy-2-[(3S)-7-[(4-methyloxazol-5-yl)methoxy]-1,2,3,4-tetrahydroisoquinolin-3-yl]ethyl]-2-(1-piperidyl)pyrimidine-4-carboxamide] | 0.05 to 0.5 µM | < 1 µM | A* (an IC50 ratio greater than or equal to 10 fold between the IC50 in the HAP1 MTAP-intact cell line and the HAP1 MTAP-deleted cell line) | 1 to 10 µM | < 0.05 µM | A (a Ki ratio greater than or equal to 10 fold between the Ki in the presence of SAM and the Ki in the presence of MTA) | 0.05 to 0.5 µM
CC(=O)N1CC(Nc2cc(C(=O)NC[C@@H](O)[C@@H]3Cc4ccc(OCc5ocnc5C)cc4CN3)nc(N3CC4CC(C4)C3)n2)C1 [Compound 51, 6-[(1-acetylazetidin-3-yl)amino]-2-(3-azabicyclo[3.1.1]heptan-3-yl)-N-[(2R)-2-hydroxy-2-[(3S)-7-[(4-methyloxazol-5-yl)methoxy]-1,2,3,4-tetrahydroisoquinolin-3-yl]ethyl]pyrimidine-4-carboxamide] | 0.05 to 0.5 µM | < 1 µM | A* (an IC50 ratio greater than or equal to 10 fold between the IC50 in the HAP1 MTAP-intact cell line and the HAP1 MTAP-deleted cell line) | 1 to 10 µM | < 0.05 µM | A (a Ki ratio greater than or equal to 10 fold between the Ki in the presence of SAM and the Ki in the presence of MTA) | 0.05 to 0.5 µM
Cc1ncoc1COc1ccc2c(c1)CN[C@H]([C@H](O)CNC(=O)c1cc(NC3CCC3)nc(N3CCN(C)CC3)c1)C2 [Compound 52, 2-(cyclobutylamino)-N-[(2R)-2-hydroxy-2-[(3S)-7-[(4-methyloxazol-5-yl)methoxy]-1,2,3,4-tetrahydroisoquinolin-3-yl]ethyl]-6-(4-methylpiperazin-1-yl)pyridine-4-carboxamide] | 0.05 to 0.5 µM | < 1 µM | A* (an IC50 ratio greater than or equal to 10 fold between the IC50 in the HAP1 MTAP-intact cell line and the HAP1 MTAP-deleted cell line) | < 1 µM | < 0.05 µM | A (a Ki ratio greater than or equal to 10 fold between the Ki in the presence of SAM and the Ki in the presence of MTA) | 0.05 to 0.5 µM
Cc1ncoc1COc1ccc2c(c1)CN[C@H]([C@H](O)CNC(=O)c1cc(NC3CCC3)ncc1F)C2 [Compound 27, 2-(cyclobutylamino)-5-fluoro-N—((R)-2-hydroxy-2-((S)-7-((4-methyloxazol-5-yl)methoxy)-1,2,3,4-tetrahydroisoquinolin-3-yl)ethyl)isonicotinamide] | 0.5 to 5 µM | < 1 µM | A* (an IC50 ratio greater than or equal to 10 fold between the IC50 in the HAP1 MTAP-intact cell line and the HAP1 MTAP-deleted cell line) | 1 to 10 µM | 0.05 to 0.5 µM | A (a Ki ratio greater than or equal to 10 fold between the Ki in the presence of SAM and the Ki in the presence of MTA) | 0.05 to 0.5 µM
